Experimental data published in paper PMC10562414, “GLP-1R signaling neighborhoods associate with the susceptibility to adverse drug reactions of incretin mimetics” (Nature Communications, 2023).

Legend:
GLP-1R [1] = biological target: T1, GLP-1R (Homo sapiens, UniProt P43220); experiment: ebBRET pathway activation (15 pathways) at the endoplasmic reticulum (tdrGFP-PTP1B); type: cell-based; conditions: for Emax: Endoplasmic reticulum; for Efficacy (normalized) / Potency (logEC50): endoplasmic reticulum
Description: Subcellular resolution was achieved by using organelle-specific energy acceptors for early endosomes, the Golgi apparatus and the endoplasmic reticulum.
Data are represented as the mean ± SEM (n = 3 biologically independent experiments). EE early endosomes, GA Golgi apparatus, ER endoplasmic reticulum.
HEK293 cells were cultured in DMEM supplemented with 10% FBS, 1% penicillin/streptomycin, propagated in plastic flasks and grown at 37 °C in 5% CO2 and 90% humidity. […] After a 48-hour incubation, cells were washed once with HBSS and maintained in the same buffer.
Best fit values were excluded if EC50 was outside of the concentration range tested or if the span was negative. […] All further data processing was performed in R (version 4.2.1).
Pharmacological characterization of GLP-1R agonist signaling
profiles at the endoplasmic reticulum. a, Illustration depicting the ebBRET approach to
monitoring signaling at the endoplasmic reticulum. b, Concentration-response curves of GLP-1R
agonists across 15 pathways at the endoplasmic reticulum using tdrGFP-P TP1B. Data are
represented by the non-linear fit and sc aled according to the highest responding drug (n=3
biologically independent samples). Drug-s pecific polar area diagrams for efficacy (normalized
endoplasmic reticulum. Drugs were deemed to activate a given pathway after comparing
the top and bottom parameters from non-linear regression by one-sided extra sum-o f-
similarity index for efficacy (e) and potency (f) quantifies similarities and differences across drug
Drug- induced transducer engagement by GLP-1R at the
endoplasmic reticulum. Agonist concentration response curves for 15 transducers at the
endoplasmic reticulum. Drugs were deemed to activate a given pathway after comparing the top
and bottom parameters from non-linear regres sion by one-sided extra s um-o f-s quares F-t est
Data are represented as the
mean ± SEM (n=3 biologically independent samples). Sigmoidal dose-r esponse curves are
Polar area diagrams depict pathway activation at the endoplasmic
reticulum. Pathway-specific polar area diagrams for efficacy (normalized to the highest
were deemed to activate a given pathway after comparing the top and bottom parameters from
non-linear regression by one-sided extra sum-o f-s quares F-t est followed by Bonferroni

GLP-1R [2] = biological target: T1, GLP-1R; experiment: ebBRET pathway activation (15 transducers), normalized efficacy and potency, Supplementary Fig. 11 (cellular compartment not given); type: cell-based
[3] = tested on: HEK293 cells without GLP-1R (phosphoproteome); experiment: Phosphoproteomics, untransfected / mock-transfected control cells, 30 min; type: cell-based, human; conditions: mock transfection, 1 μM, vs vehicle
Description: P values were calculated by a two-sided unpaired t-test.
HEK293 cells (350,000 cells/mL) were transfected in suspension using 3 μg of linear PEI (MW 25,000) per 1 μg of plasmid DNA and seeded onto poly-D-lysine-coated 60 mm dishes at a density of 1,750,000 cells per dish. After a 24-h incubation, cells were washed twice with PBS and placed in starvation media (DMEM with penicillin/streptomycin). After a 48-h incubation, cells were washed twice with HBSS and maintained in the same buffer. […] Cell extracts were prepared as previously described[64]–[66]. In short, 200 μL of the lysis buffer preheated at 95 °C (4% sodium dodecyl sulfate in 50 mM Tris adjusted to pH 8.5) was added to the cells. The samples were then denatured at 95 °C for 10 min, placed on ice and then sonicated using a probe sonicator (3 sec on, 3 sec off pulse, 1 min, 30% amplitude) (Branson). Lysate protein concentration was determined using the Pierce bicinchoninic acid assay kit (Thermo Fisher Scientific) according to the manufacturer’s instructions. The lysates were reduced using 5 mM dithiothreitol for 1 h at room temperature and alkylated using 15 mM iodoacetamide for 1 h at room temperature in the dark. Proteins were precipitated and digested on beads using MagReSyn Amine magnetic beads (ReSyn Biosciences) according to the manufacturer’s instructions. Protein digestion was conducted overnight at 37 °C with lysyl endopeptidase (LysC, Wako) (1:150 LysC/protein, w/w) and trypsin (1:300 trypsin/protein, w/w). 20% TFA, 2 M glycolic acid in 80% ACN were added to the samples at a 1:1 ratio for phosphopeptide enrichment using MagReSyn TiO2 magnetic beads (ReSyn Biosciences) according to the manufacturer’s instructions. The enriched phosphopeptides were dried overnight in a SpeedVac, resuspended into 5% formic acid (FA), desalted using StageTip (Thermo Fisher Scientific) according to the manufacturer’s instructions and dried in a SpeedVac. The experiment was performed in biological triplicates.
All parameters and settings regarding the acquisition of the proteomics data can be found in Supplementary Data 11, 12. For data acquisition, the instrument was set to peptide mode, with a trapping pressure set as low (2mTorr). An EASY-Spray Source (Thermo Fisher Scientific) was used and the column temperature was maintained with the integrated, temperature-controlled heater at 55 °C throughout the experiment. For the data presented in Fig. 5d, the column was heated at 50 °C following the manufacturer’s instructions (IonOpticks).
Acquired raw files were converted to mzML format by MSConvert (version 3.0.21258)[67] applying peak picking of the mass spectra with the vendor-provided algorithm (Thermo Fisher Scientific). The mzML files were analyzed using the FragPipe GUI v18 for both library and DIA search. […] Trypsin with up to 2 missed cleavages was set as digestion enzyme, oxidation of methionine, acetylation of the N-terminus and phosphorylation on serine, threonine and tyrosine (maximal occurrence was set to three) were set as variable modifications. Carbamidomethylation of cysteine residues was set as a fixed modification. Peptide length was restricted to 7 to 50 amino acids, and 500 to 5000 Da. […] DIA files were analyzed by DIA-NN 1.8.1[71], [72] using the previously generated library and monitor-command mode. Peptide quantification was performed based on the fragment elution profiles from the MS2 level (area under the curve). […]

T1 sequence (P43220 24-463): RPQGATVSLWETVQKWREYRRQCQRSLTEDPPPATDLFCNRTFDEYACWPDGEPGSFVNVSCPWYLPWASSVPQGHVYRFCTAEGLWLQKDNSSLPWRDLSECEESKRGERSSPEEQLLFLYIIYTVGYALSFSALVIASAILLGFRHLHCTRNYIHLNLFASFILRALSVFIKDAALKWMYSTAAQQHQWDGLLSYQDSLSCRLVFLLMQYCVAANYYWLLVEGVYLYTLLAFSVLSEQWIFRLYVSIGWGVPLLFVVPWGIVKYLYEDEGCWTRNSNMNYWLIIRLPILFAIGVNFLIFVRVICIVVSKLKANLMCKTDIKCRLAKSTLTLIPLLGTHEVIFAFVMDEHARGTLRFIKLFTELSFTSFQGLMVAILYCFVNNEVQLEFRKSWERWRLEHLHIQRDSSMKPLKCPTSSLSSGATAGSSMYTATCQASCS

N#Cc1ccc(COc2cccc(C3CCN(Cc4nc5ccc(C(=O)O)cc5n4C[C@@H]4CCO4)CC3)n2)c(F)c1 [Danuglipron]
Emax (GLP-1R [1]; GRK/Gβγ): 0.1421
Emax (GLP-1R [1]; Gα11): 0
Emax (GLP-1R [1]; Gα12): 0
Emax (GLP-1R [1]; Gα13): 0
Emax (GLP-1R [1]; Gα14): 0
Emax (GLP-1R [1]; Gα15): 0
Emax (GLP-1R [1]; Gαi1): 0
Emax (GLP-1R [1]; Gαi2): 0
Emax (GLP-1R [1]; Gαi3): 0
Emax (GLP-1R [1]; GαoA): 0
Emax (GLP-1R [1]; GαoB): 0
Emax (GLP-1R [1]; Gαq): 0
Emax (GLP-1R [1]; Gαs): 0.2391
Emax (GLP-1R [1]; Gαz): 0
Emax (GLP-1R [1]; βARR): 0.08276
mGs recruitment at the endoplasmic reticulum, in words (GLP-1R [1]; Rluc8-mGs, tdrGFP-PTP1B, 60 min, n = 3): the only drug capable of recruiting mGs to the endoplasmic reticulum
Efficacy (normalized) (GLP-1R [1]; GRK2/Gβγ, Supplementary Fig. 15c): 0.6257
Efficacy (normalized) (GLP-1R [1]; Gα11, Supplementary Fig. 15c): 0
Potency (logEC50) (GLP-1R [1]; Gα11, Supplementary Fig. 15d): 0
Efficacy (normalized) (GLP-1R [1]; Gα12, Supplementary Fig. 15c): 0
Potency (logEC50) (GLP-1R [1]; Gα12, Supplementary Fig. 15d): 0
Efficacy (normalized) (GLP-1R [1]; Gα13, Supplementary Fig. 15c): 0
Potency (logEC50) (GLP-1R [1]; Gα13, Supplementary Fig. 15d): 0
Efficacy (normalized) (GLP-1R [1]; Gα14, Supplementary Fig. 15c): 0
Potency (logEC50) (GLP-1R [1]; Gα14, Supplementary Fig. 15d): 0
Efficacy (normalized) (GLP-1R [1]; Gα15, Supplementary Fig. 15c): 0
Potency (logEC50) (GLP-1R [1]; Gα15, Supplementary Fig. 15d): 0
Efficacy (normalized) (GLP-1R [1]; Gαi1, Supplementary Fig. 15c): 0
Potency (logEC50) (GLP-1R [1]; Gαi1, Supplementary Fig. 15d): 0
Efficacy (normalized) (GLP-1R [1]; Gαi2, Supplementary Fig. 15c): 0
Potency (logEC50) (GLP-1R [1]; Gαi2, Supplementary Fig. 15d): 0
Efficacy (normalized) (GLP-1R [1]; Gαi3, Supplementary Fig. 15c): 0
Potency (logEC50) (GLP-1R [1]; Gαi3, Supplementary Fig. 15d): 0
Efficacy (normalized) (GLP-1R [1]; GαoA, Supplementary Fig. 15c): 0
Potency (logEC50) (GLP-1R [1]; GαoA, Supplementary Fig. 15d): 0
Efficacy (normalized) (GLP-1R [1]; GαoB, Supplementary Fig. 15c): 0
Potency (logEC50) (GLP-1R [1]; GαoB, Supplementary Fig. 15d): 0
Efficacy (normalized) (GLP-1R [1]; Gαq, Supplementary Fig. 15c): 0
Potency (logEC50) (GLP-1R [1]; Gαq, Supplementary Fig. 15d): 0
Efficacy (normalized) (GLP-1R [1]; Gαs, Supplementary Fig. 15c): 1
Potency (logEC50) (GLP-1R [1]; Gαs, Supplementary Fig. 15d): 0.2956
Efficacy (normalized) (GLP-1R [1]; Gαz, Supplementary Fig. 15c): 0
Potency (logEC50) (GLP-1R [1]; Gαz, Supplementary Fig. 15d): 0
Efficacy (normalized) (GLP-1R [1]; βARR2, Supplementary Fig. 15c): 0.2909
Potency (logEC50) (GLP-1R [1]; βARR2, Supplementary Fig. 15d): 0.3992
Efficacy (normalized), GRK2/Gβγ (GLP-1R [2]; Supplementary Fig. 11a, GRK2/Gβγ): 0.507
Efficacy (normalized), Gα11 (GLP-1R [2]; Supplementary Fig. 11a, Gα11): 0
Efficacy (normalized), Gα12 (GLP-1R [2]; Supplementary Fig. 11a, Gα12): 0
Efficacy (normalized), Gα13 (GLP-1R [2]; Supplementary Fig. 11a, Gα13): 0
Efficacy (normalized), Gα14 (GLP-1R [2]; Supplementary Fig. 11a, Gα14): 0.9516
Efficacy (normalized), Gα15 (GLP-1R [2]; Supplementary Fig. 11a, Gα15): 0
Efficacy (normalized), Gαi1 (GLP-1R [2]; Supplementary Fig. 11a, Gαi1): 0
Efficacy (normalized), Gαi2 (GLP-1R [2]; Supplementary Fig. 11a, Gαi2): 0
Efficacy (normalized), Gαi3 (GLP-1R [2]; Supplementary Fig. 11a, Gαi3): 0
Efficacy (normalized), GαoA (GLP-1R [2]; Supplementary Fig. 11a, GαoA): 0.4649
Efficacy (normalized), GαoB (GLP-1R [2]; Supplementary Fig. 11a, GαoB): 0.7256
Efficacy (normalized), Gαq (GLP-1R [2]; Supplementary Fig. 11a, Gαq): 0
Efficacy (normalized), Gαs (GLP-1R [2]; Supplementary Fig. 11a, Gαs): 0
Efficacy (normalized), Gαz (GLP-1R [2]; Supplementary Fig. 11a, Gαz): 0.5189
Efficacy (normalized), βARR2 (GLP-1R [2]; Supplementary Fig. 11a, βARR2): 0.458
Potency (logEC50), Gα11 (GLP-1R [2]; Supplementary Fig. 11b, Gα11): 0
Potency (logEC50), Gα12 (GLP-1R [2]; Supplementary Fig. 11b, Gα12): 0
Potency (logEC50), Gα13 (GLP-1R [2]; Supplementary Fig. 11b, Gα13): 0
Potency (logEC50), Gα14 (GLP-1R [2]; Supplementary Fig. 11b, Gα14): 0.7414
Potency (logEC50), Gα15 (GLP-1R [2]; Supplementary Fig. 11b, Gα15): 0
Potency (logEC50), Gαi1 (GLP-1R [2]; Supplementary Fig. 11b, Gαi1): 0
Potency (logEC50), Gαi2 (GLP-1R [2]; Supplementary Fig. 11b, Gαi2): 0
Potency (logEC50), Gαi3 (GLP-1R [2]; Supplementary Fig. 11b, Gαi3): 0
Potency (logEC50), GαoA (GLP-1R [2]; Supplementary Fig. 11b, GαoA): 0.573
Potency (logEC50), GαoB (GLP-1R [2]; Supplementary Fig. 11b, GαoB): 0.2577
Potency (logEC50), Gαq (GLP-1R [2]; Supplementary Fig. 11b, Gαq): 0
Potency (logEC50), Gαs (GLP-1R [2]; Supplementary Fig. 11b, Gαs): 0
Potency (logEC50), Gαz (GLP-1R [2]; Supplementary Fig. 11b, Gαz): 0.2291
Potency (logEC50), βARR2 (GLP-1R [2]; Supplementary Fig. 11b, βARR2): 0.384
log2.foldchange, EIF3J S11 ([3]; p 0.0145494, n = 3): -0.5603
log2.foldchange, VPS51 S18 (peptide ...EAPER) ([3]; p 0.168261, n = 3): -0.2294
log2.foldchange, VPS51 S18 (peptide ...EAPERR) ([3]; p 0.181448, n = 3): 0.6501
log2.foldchange, VPS51 S10 ([3]; p 0.364227, n = 3): 0.2093
log2.foldchange, PABPN1 S19 ([3]; p 0.447985, n = 3): 0.07218
